Reference: ChEMBL document CHEMBL4229561, “Design, synthesis, and biological evaluation of selective and potent Carbazole-based butyrylcholinesterase inhibitors” (Bioorg Med Chem, 2018)
Activity calls are given as the source filed them. No cut-off for these calls is given here.

Assays:
Cholinesterase [1] = biological target: T1, Cholinesterase (Equus caballus, UniProt P81908); test: Inhibition of equine serum BuChE using butyrylthiocholine iodide as substrate preincubated for 10 mins followed by substrate addition measured for 5 mins by Ellman's method
[2] = Selectivity index, ratio of IC50 for electric eel AChE to IC50 for equine serum BuChE
Acetylcholinesterase = Acetylcholinesterase (Electrophorus electricus, UniProt O42275); test: Inhibition of electric eel AChE using acetylthiocholine iodide as substrate preincubated for 10 mins followed by substrate addition measured for 5 mins by Ellman's method
[3] = biological target: Amyloid-beta precursor protein (Homo sapiens) (UniProt P05067); test: Inhibition of HFIP-pretreated amyloid beta (1 to 42) (unknown origin) self-induced aggregation at 10 uM after 48 hrs by thioflavin-T fluorescence assay relative to control
Rattus norvegicus [4] = test: Reversal of scopolamine-induced memory impairment in albino Wistar rat assessed as effect on swimming speed at 5 to 20 mg/kg, ip by Morris water maze test; type: functional, organism-based
PC-12 [5] = test: Cytotoxicity against rat PC12 cells assessed as reduction in cell viability at 100 uM by MTT assay; type: cell-based; details: pc-12, 100 µM
PC-12 [6] = test: Neuroprotection against H2O2-induced cell death in rat PC12 cells assessed as increase in cell viability at 1 uM preincubated for 3 hrs followed by H2O2 addition measured after 12 hrs by MTT assay; type: functional, cell-based
Rattus norvegicus [7] = test: Reversal of scopolamine-induced memory impairment in albino Wistar rat assessed as decrease in mean training period traveled distance to find platform at 10 mg/kg, ip by Morris water maze test; type: functional, organism-based
Rattus norvegicus [8] = test: Reversal of scopolamine-induced memory impairment in albino Wistar rat assessed as decrease in mean training period scape latency at 10 mg/kg, ip by Morris water maze test; type: functional, organism-based
Rattus norvegicus [9] = test: Reversal of scopolamine-induced memory impairment in albino Wistar rat assessed as increase in time spent in target quadrant in probe day at 10 mg/kg, ip by Morris water maze test; type: functional, organism-based
PC-12 [10] = test: Neuroprotection against H2O2-induced cell death in rat PC12 cells assessed as cell viability at 10 uM preincubated for 3 hrs followed by H2O2 addition measured after 12 hrs by MTT assay relative to control; type: functional; details: read-out: Activity
[11] = biological target: Cholinesterase (Equus caballus) (UniProt P81908); test: Potency index, ratio of donepezile IC50 to compound IC50 for inhibition of equine serum BuChE
[12] = biological target: Cholinesterase (Equus caballus) (UniProt P81908); test: Potency index, ratio of galantamine IC50 to compound IC50 for inhibition of equine serum BuChE
Cholinesterase [13] = biological target: T1, Cholinesterase; test: Mixed-type inhibition of equine serum BuChE using varying levels of butyrylthiocholine iodide as substrate preincubated for 10 mins followed by substrate addition measured for 5 mins by Lineweaver-Burk plot analysis
Rattus norvegicus [14] = test: Reversal of scopolamine-induced memory impairment in albino Wistar rat assessed as decrease in mean training period traveled distance to find platform at 2.5 mg/kg, ip by Morris water maze test; type: functional, organism-based
Rattus norvegicus [15] = test: Reversal of scopolamine-induced memory impairment in albino Wistar rat assessed as effect on swimming speed at 2.5 mg/kg, ip by Morris water maze test; type: functional, organism-based
Rattus norvegicus [16] = test: Reversal of scopolamine-induced memory impairment in albino Wistar rat assessed as increase in time spent in target quadrant in probe day at 2.5 mg/kg, ip by Morris water maze test; type: functional, organism-based

T1 sequence (P81908 whole entry): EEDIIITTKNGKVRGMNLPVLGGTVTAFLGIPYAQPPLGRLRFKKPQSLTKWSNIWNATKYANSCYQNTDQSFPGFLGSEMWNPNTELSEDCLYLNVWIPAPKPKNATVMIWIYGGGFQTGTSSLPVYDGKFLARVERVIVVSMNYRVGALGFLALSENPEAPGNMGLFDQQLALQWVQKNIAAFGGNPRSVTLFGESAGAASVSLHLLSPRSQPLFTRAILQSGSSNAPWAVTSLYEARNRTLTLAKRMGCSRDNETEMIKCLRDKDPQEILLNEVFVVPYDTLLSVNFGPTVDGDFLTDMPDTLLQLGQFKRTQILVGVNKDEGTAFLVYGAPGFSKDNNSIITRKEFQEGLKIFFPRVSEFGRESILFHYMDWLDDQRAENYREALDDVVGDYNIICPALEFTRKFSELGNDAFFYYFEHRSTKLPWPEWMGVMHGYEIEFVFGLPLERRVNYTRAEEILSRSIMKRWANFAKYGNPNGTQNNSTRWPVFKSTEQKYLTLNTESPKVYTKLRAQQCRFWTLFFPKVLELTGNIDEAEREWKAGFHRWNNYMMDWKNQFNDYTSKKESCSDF
Acetylcholinesterase, sequence (O42275 whole entry): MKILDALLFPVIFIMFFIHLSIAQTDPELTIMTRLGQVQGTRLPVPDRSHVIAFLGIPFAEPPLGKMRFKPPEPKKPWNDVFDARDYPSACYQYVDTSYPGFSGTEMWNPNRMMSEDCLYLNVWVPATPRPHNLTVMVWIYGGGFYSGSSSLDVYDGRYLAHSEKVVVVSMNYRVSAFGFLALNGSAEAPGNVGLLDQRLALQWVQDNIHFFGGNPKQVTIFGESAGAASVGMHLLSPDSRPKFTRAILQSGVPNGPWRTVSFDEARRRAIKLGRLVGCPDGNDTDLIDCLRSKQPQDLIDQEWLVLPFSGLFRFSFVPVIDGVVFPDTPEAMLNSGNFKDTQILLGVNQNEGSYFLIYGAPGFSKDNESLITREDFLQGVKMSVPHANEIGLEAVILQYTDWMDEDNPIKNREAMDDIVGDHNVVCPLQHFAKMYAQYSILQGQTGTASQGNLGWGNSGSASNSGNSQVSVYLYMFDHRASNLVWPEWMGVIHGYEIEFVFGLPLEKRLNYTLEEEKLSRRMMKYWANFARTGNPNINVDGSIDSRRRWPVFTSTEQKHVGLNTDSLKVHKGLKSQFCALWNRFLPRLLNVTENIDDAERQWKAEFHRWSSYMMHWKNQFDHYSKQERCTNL
Cholinesterase (Equus caballus), sequence (P81908 whole entry): as the sequence (P81908 whole entry) above
Amyloid-beta precursor protein (Homo sapiens), sequence (P05067 whole entry): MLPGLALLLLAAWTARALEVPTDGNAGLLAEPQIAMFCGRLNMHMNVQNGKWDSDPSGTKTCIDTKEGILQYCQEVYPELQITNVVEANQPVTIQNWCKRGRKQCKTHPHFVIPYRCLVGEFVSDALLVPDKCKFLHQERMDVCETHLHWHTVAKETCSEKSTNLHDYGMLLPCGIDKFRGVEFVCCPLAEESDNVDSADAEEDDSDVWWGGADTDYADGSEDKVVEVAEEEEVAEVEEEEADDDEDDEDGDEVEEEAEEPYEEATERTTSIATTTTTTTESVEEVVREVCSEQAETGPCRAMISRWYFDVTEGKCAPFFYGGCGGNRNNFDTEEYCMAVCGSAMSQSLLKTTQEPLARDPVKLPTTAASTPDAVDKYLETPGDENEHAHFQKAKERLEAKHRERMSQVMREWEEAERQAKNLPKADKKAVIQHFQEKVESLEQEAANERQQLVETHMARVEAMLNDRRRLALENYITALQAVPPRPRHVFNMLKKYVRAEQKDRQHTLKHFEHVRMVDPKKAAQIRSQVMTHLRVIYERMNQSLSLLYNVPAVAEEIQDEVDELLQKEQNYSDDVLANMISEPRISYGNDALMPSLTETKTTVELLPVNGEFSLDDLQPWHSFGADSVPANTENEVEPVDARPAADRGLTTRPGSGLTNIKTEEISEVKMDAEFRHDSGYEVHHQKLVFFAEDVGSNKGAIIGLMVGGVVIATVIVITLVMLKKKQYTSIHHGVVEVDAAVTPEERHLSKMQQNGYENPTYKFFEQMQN

Structure (SMILES)	IC50 (Cholinesterase [1]) [nM]	Ratio IC50 [2]	IC50 (Acetylcholinesterase) [nM]	other results
Clc1cccc(C[n+]2ccc(Cn3c4ccccc4c4ccccc43)cc2)c1	350	26.6	9300	–
c1ccc(C[n+]2cccc(Cn3c4ccccc4c4ccccc43)c2)cc1	270	229	61900	–
Fc1ccccc1C[n+]1ccc(Cn2c3ccccc3c3ccccc32)cc1	670	18.9	12700	–
Nc1c2c(nc3ccccc13)CCCC2	–	–	–	inhibition [3]: 7.7%
Cc1cccc(C[n+]2cccc(Cn3c4ccccc4c4ccccc43)c2)c1	280	236	66000	–
Clc1ccc(C[n+]2cccc(Cn3c4ccccc4c4ccccc43)c2)cc1.[Cl-]	73	274	20000	Activity (Rattus norvegicus [4]): inactive; inhibition [3]: 49.9%; Activity (PC-12 [5]): Toxic; Activity (PC-12 [6]): inactive; Activity (Rattus norvegicus [7]): Active; Activity (Rattus norvegicus [8]): Active; Activity (Rattus norvegicus [9]): Active; viability at 10 µM (PC-12 [10]): 66%; Ratio IC50 [11]: 4.8; Ratio IC50 [12]: 129; Ki (Cholinesterase [13]): 90 nM
COc1cc2c(cc1OC)C(=O)C(CC1CCN(Cc3ccccc3)CC1)C2 (stereo not given)	–	–	–	Activity (Rattus norvegicus [14]): Active; Activity (Rattus norvegicus [15]): inactive; Activity (Rattus norvegicus [16]): Active
Cc1ccc(C[n+]2cccc(Cn3c4ccccc4c4ccccc43)c2)cc1	110	210	23100	–
Fc1cccc(C[n+]2cccc(Cn3c4ccccc4c4ccccc43)c2)c1	750	> 133	> 100000	–
Fc1ccc(C[n+]2ccc(Cn3c4ccccc4c4ccccc43)cc2)cc1	890	21.1	18800	–
Clc1ccccc1C[n+]1ccc(Cn2c3ccccc3c3ccccc32)cc1	590	11.5	6800	–
Clc1ccccc1C[n+]1cccc(Cn2c3ccccc3c3ccccc32)c1	380	> 263	> 100000	–
Cc1ccccc1C[n+]1cccc(Cn2c3ccccc3c3ccccc32)c1	220	239	52500	–
Fc1cccc(C[n+]2ccc(Cn3c4ccccc4c4ccccc43)cc2)c1	1100	19.3	21300	–
Cc1cccc(C[n+]2ccc(Cn3c4ccccc4c4ccccc43)cc2)c1	730	24	17500	–
Cc1ccc(C[n+]2ccc(Cn3c4ccccc4c4ccccc43)cc2)cc1	810	19.3	15600	–
Fc1ccc(C[n+]2cccc(Cn3c4ccccc4c4ccccc43)c2)cc1	130	225	29400	–
Clc1cccc(C[n+]2cccc(Cn3c4ccccc4c4ccccc43)c2)c1	160	205	32800	–
Cc1ccccc1C[n+]1ccc(Cn2c3ccccc3c3ccccc32)cc1	350	34	11900	–
c1ccc(C[n+]2ccc(Cn3c4ccccc4c4ccccc43)cc2)cc1	580	22.1	12800	–
Fc1ccccc1C[n+]1cccc(Cn2c3ccccc3c3ccccc32)c1	370	> 270	> 100000	–
Clc1ccc(C[n+]2ccc(Cn3c4ccccc4c4ccccc43)cc2)cc1	1600	11.9	19000	–
